Tests used:
Assay in all cases: relative viability (nuclei count vs DMSO), 5 days (fraction); higher = more cells survive
BX 795 = compound: O=C(NCCCNc1nc(Nc2cccc(NC(=O)N3CCCC3)c2)ncc1I)c1cccs1 [BX 795]
Summary of the method: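 Viability was read as treated-well nuclei divided by vehicle-well nuclei, using the median across plates. Lung cancer cell lines in 1536-well plates were kept overnight at 37 °C, pinned with five √10-spaced library-drug doses, and after 5 days were Hoechst-stained, imaged at 4× and counted in MetaXpress. Plates passed only with control CV below 25% and at least one doubling.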

BX 795 + Lapatinib = compound: O=C(NCCCNc1nc(Nc2cccc(NC(=O)N3CCCC3)c2)ncc1I)c1cccs1 [BX 795] + CS(=O)(=O)CCNCc1ccc(-c2ccc3ncnc(Nc4ccc(OCc5cccc(F)c5)c(Cl)c4)c3c2)o1 [Lapatinib] (partner 2 µM)
Summary of the method: (§1)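 Relative viability was taken as the ratio of nuclei in treated wells to nuclei in vehicle wells. Lung cancer cell lines in 1536-well plates received compounds by pin tool one day after seeding, either one drug alone or a fixed anchor-drug dose plus five library-drug doses (not always all listed) in √10 steps. Nuclei were counted on 4× images after 5 days of treatment, and values are medians of duplicate plates.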

BX 795 + Foretinib = compound: O=C(NCCCNc1nc(Nc2cccc(NC(=O)N3CCCC3)c2)ncc1I)c1cccs1 [BX 795] + COc1cc2c(Oc3ccc(NC(=O)C4(C(=O)Nc5ccc(F)cc5)CC4)cc3F)ccnc2cc1OCCCN1CCOCC1 [Foretinib] (partner 0.25 µM)
Summary of the method: as §1

BX 795 + Navitoclax = compound: O=C(NCCCNc1nc(Nc2cccc(NC(=O)N3CCCC3)c2)ncc1I)c1cccs1 [BX 795] + CC1(C)CCC(c2ccc(Cl)cc2)=C(CN2CCN(c3ccc(C(=O)NS(=O)(=O)c4ccc(N[C@H](CCN5CCOCC5)CSc5ccccc5)c(S(=O)(=O)C(F)(F)F)c4)cc3)CC2)C1 [Navitoclax] (partner 0.5 µM)
Summary of the method: as §1

BX 795 + Pictilisib = compound: O=C(NCCCNc1nc(Nc2cccc(NC(=O)N3CCCC3)c2)ncc1I)c1cccs1 [BX 795] + CS(=O)(=O)N1CCN(Cc2cc3nc(-c4cccc5[nH]ncc45)nc(N4CCOCC4)c3s2)CC1 [Pictilisib] (partner 1 µM)
Summary of the method: as §1

BX 795 + Olaparib = compound: O=C(NCCCNc1nc(Nc2cccc(NC(=O)N3CCCC3)c2)ncc1I)c1cccs1 [BX 795] + O=C(c1cc(Cc2n[nH]c(=O)c3ccccc23)ccc1F)N1CCN(C(=O)C2CC2)CC1 [Olaparib] (partner 8 µM)
Summary of the method: as §1

BX 795 + Linsitinib = compound: O=C(NCCCNc1nc(Nc2cccc(NC(=O)N3CCCC3)c2)ncc1I)c1cccs1 [BX 795] + C[C@]1(O)C[C@@H](c2nc(-c3ccc4ccc(-c5ccccc5)nc4c3)c3c(N)nccn32)C1 [Linsitinib] (partner 1 µM)
Summary of the method: as §1

BX 795 + Bortezomib = compound: O=C(NCCCNc1nc(Nc2cccc(NC(=O)N3CCCC3)c2)ncc1I)c1cccs1 [BX 795] + CC(C)C[C@H](NC(=O)[C@H](Cc1ccccc1)NC(=O)c1cnccn1)B(O)O [Bortezomib] (partner 0.002 µM)
Summary of the method: as §1

BX 795 + Alpelisib = compound: O=C(NCCCNc1nc(Nc2cccc(NC(=O)N3CCCC3)c2)ncc1I)c1cccs1 [BX 795] + Cc1nc(NC(=O)N2CCC[C@H]2C(N)=O)sc1-c1ccnc(C(C)(C)C(F)(F)F)c1 [Alpelisib] (partner 2 µM)
Summary of the method: as §1

BX 795 + Crizotinib = compound: O=C(NCCCNc1nc(Nc2cccc(NC(=O)N3CCCC3)c2)ncc1I)c1cccs1 [BX 795] + C[C@@H](Oc1cc(-c2cnn(C3CCNCC3)c2)cnc1N)c1c(Cl)ccc(F)c1Cl [Crizotinib] (partner 1 µM)
Summary of the method: as §1

Cell Line	relative viability (BX 795; 0.04 µM)	relative viability (BX 795; 0.1265 µM)	relative viability (BX 795; 0.4 µM)	relative viability (BX 795; 1.265 µM)	relative viability (BX 795 + Lapatinib; first compound 0.04 µM)	relative viability (BX 795 + Lapatinib; first compound 0.1265 µM)	relative viability (BX 795 + Lapatinib; first compound 0.4 µM)	relative viability (BX 795 + Lapatinib; first compound 1.265 µM)	relative viability (BX 795 + Foretinib; first compound 0.04 µM)	relative viability (BX 795 + Foretinib; first compound 0.1265 µM)	relative viability (BX 795 + Foretinib; first compound 0.4 µM)	relative viability (BX 795 + Foretinib; first compound 1.265 µM)	relative viability (BX 795 + Navitoclax; first compound 0.04 µM)	relative viability (BX 795 + Navitoclax; first compound 0.1265 µM)	relative viability (BX 795 + Navitoclax; first compound 0.4 µM)	relative viability (BX 795 + Navitoclax; first compound 1.265 µM)	relative viability (BX 795 + Pictilisib; first compound 0.04 µM)	relative viability (BX 795 + Pictilisib; first compound 0.1265 µM)	relative viability (BX 795 + Pictilisib; first compound 0.4 µM)	relative viability (BX 795 + Pictilisib; first compound 1.265 µM)	relative viability (BX 795 + Olaparib; first compound 0.04 µM)	relative viability (BX 795 + Olaparib; first compound 0.1265 µM)	relative viability (BX 795 + Olaparib; first compound 0.4 µM)	relative viability (BX 795 + Olaparib; first compound 1.265 µM)	relative viability (BX 795 + Linsitinib; first compound 0.04 µM)	relative viability (BX 795 + Linsitinib; first compound 0.1265 µM)	relative viability (BX 795 + Linsitinib; first compound 0.4 µM)	relative viability (BX 795 + Linsitinib; first compound 1.265 µM)	relative viability (BX 795 + Bortezomib; first compound 0.04 µM)	relative viability (BX 795 + Bortezomib; first compound 0.1265 µM)	relative viability (BX 795 + Bortezomib; first compound 0.4 µM)	relative viability (BX 795 + Bortezomib; first compound 1.265 µM)	relative viability (BX 795 + Alpelisib; first compound 0.04 µM)	relative viability (BX 795 + Alpelisib; first compound 0.1265 µM)	relative viability (BX 795 + Alpelisib; first compound 0.4 µM)	relative viability (BX 795 + Alpelisib; first compound 1.265 µM)	relative viability (BX 795 + Crizotinib; first compound 0.04 µM)	relative viability (BX 795 + Crizotinib; first compound 0.1265 µM)	relative viability (BX 795 + Crizotinib; first compound 0.4 µM)	relative viability (BX 795 + Crizotinib; first compound 1.265 µM)
NCI-H1299	0.972	1.03	1.05	0.883	0.885	0.977	1.02	0.798	1.13	1.09	1.16	0.876	1.05	0.996	1.06	0.926	0.759	0.747	0.751	0.399	1.02	0.985	0.918	0.637	0.983	0.968	0.987	0.767	1.08	1.01	1.06	0.938	1.05	1.09	1.07	1	1	0.933	1.01	0.674
Calu-6	0.98	1	0.716	0.665	1.02	1.1	0.843	0.552	0.91	0.84	0.557	0.555	0.825	0.874	0.727	0.389	0.896	0.966	0.518	0.505	0.559	0.591	0.283	0.336	0.883	1.06	0.533	0.726	1.04	1.02	0.831	0.525	1.1	0.919	0.585	0.509	0.728	0.777	0.556	0.249
